Measurements from patent US20110002843A1, “METHOD OF DETECTING MYOCARDIAL DYSFUNCTION IN PATIENTS HAVING A HISTORY OF ASTHMA OR BRONCHOSPASM” (priority 2005, published 2011).

How the values were obtained:
Adenosine Receptor A1 [1] = biological target: T1, Adenosine Receptor A1 (Cavia porcellus, UniProt P47745); test: G.P. Left Atrium (Negative Inotropy) bioassay; set-up: species or system guinea pig
T1 construct: prepared guinea pig assays for binodenoson; from tissue; host or cells: isolated guinea pig right / left atrium
T1 sequence (P47745 1-326): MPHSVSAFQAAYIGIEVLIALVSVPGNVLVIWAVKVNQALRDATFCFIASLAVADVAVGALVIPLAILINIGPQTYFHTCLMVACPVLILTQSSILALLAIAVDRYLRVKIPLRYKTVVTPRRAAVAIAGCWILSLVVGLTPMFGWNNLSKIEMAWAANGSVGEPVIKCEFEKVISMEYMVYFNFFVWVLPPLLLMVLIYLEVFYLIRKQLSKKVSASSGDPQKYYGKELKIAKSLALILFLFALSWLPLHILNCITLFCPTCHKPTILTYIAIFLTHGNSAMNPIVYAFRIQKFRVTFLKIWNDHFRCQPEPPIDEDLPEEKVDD
Excerpt: (§1) It is further preferable to use compounds that are selective for the A2A receptor over the A2B receptor. Additional methods are known in the art for performing bioassays and are useful to identify selectivity to the A2B receptor as well as confirming selectivity and potency in vivo. Such bioassays are typically performed prior to animal and human trials.

Adenosine Receptor A1 [2] = biological target: T1, Adenosine Receptor A1; test: G.P. Right Atrium (Negative Inotropy) bioassay; set-up: species or system guinea pig
Excerpt: as §1

cytochrome P450 enzymes = test: In vitro inhibition of cytochrome P450 enzymes; assay type: in vitro ADME
[3] = In vitro metabolism with hepatocytes and microsomes; assay type: in vitro ADME
[4] = Dose-selection study of coronary hyperemia (CBFV by Doppler guide wire) in non-asthmatic patients at cardiac catheterization; settings: for % of CBFVR at peak Mean ± SD: CBFVR set by IC adenosine
Description: Coronary blood flow velocity reserve (CBFVR) was established by intracoronary (IC) bolus injections of adenosine just prior to administration of binodenoson to allow a direct comparison of the magnitude of responses.
Patients presenting for cardiac catheterization were screened for eligibility and provided informed consent prior to sedation. Final eligibility was determined by the investigator during diagnostic catheterization.
Following completion of the diagnostic catheterization procedure and confirmation of all eligibility criteria, the Doppler guide wire was introduced into an accessible coronary artery and manipulated until a stable signal was obtained.
Drug administration: All usual catheterization procedural medications including IC nitroglycerin, heparin, anxiolytics and analgesics, were allowed. […] Binodenoson doses were then introduced into a peripheral vein via an indwelling catheter.
Measurements: Coronary blood flow velocity (CBFV) was measured as continuous pulsatile (systolic and diastolic) velocity (cm/sec) with the Doppler guide wire introduced via a guiding catheter. HR was derived from the ECG signal. SBP and diastolic blood pressure (DBP) were recorded directly from the catheter sheath. For each IC adenosine injection, CBFVR was calculated by dividing the peak post-injection CBFV value by the respective baseline CBFV value. Each patient's maximal calculated CBFVR was used as a benchmark to which CBFV responses to binodenoson were compared. For each binodenoson dose, baseline CBFV (post-IC adenosine), peak CBFV, time following dose start time to achieve peak CBFV and percents of CBFVR (calculated as the ratio of CBFV change from baseline following binodenoson administration vs CBFVR) at each point were calculated. Rate pressure product (RPP) and coronary vascular resistance (CVR) were derived at each time point (see formulas in Table 10). […] Vital signs were measured again approximately 3 to 4 hours after dosing or prior to hospital discharge. Patients returned for a follow-up visit 2 to 4 days following catheterization that included vital signs, an abbreviated physical examination, a 12-lead ECG, blood chemistry and hematology assessments and an assessment of any late-emerging adverse events.
Adverse events were monitored throughout the study.
Statistical analyses: All pharmacodynamic and safety data were analyzed using the intent-to-treat (ITT) population, which included all patients who received any amount of study drug. A paired t test was used to assess the significance of within-treatment differences (peak vs baseline) in CBFV, vital signs and calculated CVR and RPP; repeated comparisons were corrected using the Bonferroni-Holm method. The statistical significance of differences among treatment groups was evaluated using an analysis of variance (ANOVA) model that included treatment and investigator interactions.

[5] = Hemodynamic effects in animals; assay type: in vivo
A1 adenosine receptor = biological target: T2, A1 adenosine receptor (Cavia porcellus, UniProt P47745); test: Langendorff guinea pig heart preparation, prolongation of stimulus-QRS interval (negative dromotropy)
T2 sequence (P47745 1-326): T1 sequence (P47745 1-326)

[6] = doses that increased coronary vasodilation in dogs; cited from earlier work
Adenosine Receptor A2B = Adenosine Receptor A2B (Cavia porcellus, UniProt Z9IYO2O0X7); test: G.P. Aortic Ring (Relaxation) bioassay; set-up: species or system guinea pig
Chain of Adenosine Receptor A2B (Z9IYO2O0X7 1-332): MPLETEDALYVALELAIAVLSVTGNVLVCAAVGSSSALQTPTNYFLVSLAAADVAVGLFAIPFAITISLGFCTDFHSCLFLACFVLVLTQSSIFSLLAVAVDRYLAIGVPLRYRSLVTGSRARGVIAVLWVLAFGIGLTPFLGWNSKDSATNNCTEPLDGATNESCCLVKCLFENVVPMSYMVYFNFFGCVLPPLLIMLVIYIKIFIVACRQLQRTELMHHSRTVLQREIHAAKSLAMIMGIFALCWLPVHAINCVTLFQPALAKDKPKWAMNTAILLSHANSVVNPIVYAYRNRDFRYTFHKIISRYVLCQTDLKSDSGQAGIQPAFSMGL
Excerpt: as §1

[7] = iv infusion 0.3 μg/kg/min × 3 min
[8] = iv infusion 0.5 μg/kg/min × 3 min
[9] = iv infusion 1 μg/kg/min × 3 min

## Nc1nc(N/N=C/C2CCCCC2)nc2c1ncn2[C@@H]1O[C@H](CO)[C@@H](O)[C@H]1O (stereo in doubt) [Binodenoson, 2-{2-[(Cyclohexyl)methylene]hydrazino}adenosine]
Adenosine Receptor A1 [1]
  EC50: 38.9 µM
Adenosine Receptor A1 [2]
  EC50: 21 µM
Cytochrome P450 enzymes
  inhibition of cytochrome P450 enzymes: no significant inhibition
[3]
  metabolic activity: low metabolic activity
[4]; 1.5 and 3 μg/kg doses, infused over 3 minutes or as boluses
  maximal coronary hyperemia relative to CBFVR: equivalent to CBFVR
[4]; after drug administration
  onset of coronary hyperemic responses: evident within seconds of drug administration
[4]; all doses
  time for mean SBP, DBP, CVR, RPP and HR to return to near-baseline levels: approximately 15 minutes
[4]; all treatment groups
  time for CBFV to achieve nearly maximal levels: ≤ 3 min
  time of mean peak CBFV response: ≤ 6 min
[4]; both, human, in vivo
  adverse events rated mild in intensity: 84%
  adverse events rated moderate in intensity: 15%
  patients with decreases in SBP <80 mmHg or DBP <45 mmHg per group: 7-15%
  patients with hypotension (SBP decrease >20 mmHg or DBP decrease >15 mmHg) per dose group: 50-71%
  serious adverse events during the study: Seven serious adverse events occurred in 6 patients
[4]; extrapolation of the decaying CBFV responses
  time for CBFV to return fully to baseline: ≤ 30 min
[4]; human, in vivo
  ECG changes: no adverse changes or trends in ECGs
  tolerability: well tolerated
[4]; iv bolus 1.5 μg/kg
  % of CBFVR at peak Range: 45.8-156.6%
  CVR Maximum (mean ± SD): 1.7 ± 0.8 cm*mmHg/sec
  Duration (min) of hyperemia ≧85% of CBFVR Mean ± SD: 7.4 ± 6.86 min
  Duration (min) of hyperemia ≧85% of CBFVR Range: 1 to 21 min
  Peak CBFV Mean ± SD: 54.0 ± 19.9 cm/sec
  Peak CBFV Range: 21-96 cm/sec
  Time of peak CBFV Mean ± SD: 4.5 ± 3.7 min
  Time of peak CBFV Range: 1 to 15 min
  % of CBFVR at peak Mean ± SD: 90.6 ± 23.7%
[4]; iv bolus 1.5 μg/kg, listed as binodenoson
  Duration (min) of hyperemia ≧85% of CBFVR Mean ± SD: 7.4 ± 6.86 min
[4]; iv bolus 3 μg/kg
  % of CBFVR at peak Range: 44.4-130.5%
  CVR Maximum (mean ± SD): 1.6 ± 0.4 cm*mmHg/sec
  Duration (min) of hyperemia ≧85% of CBFVR Mean ± SD: 12.3 ± 9.59 min
  Duration (min) of hyperemia ≧85% of CBFVR Range: 2 to 39 min
  Peak CBFV Mean ± SD: 55.8 ± 14.6 cm/sec
  Peak CBFV Range: 35-94 cm/sec
  Time of peak CBFV Mean ± SD: 6.0 ± 3.8 min
  Time of peak CBFV Range: 1 to 14 min
  % of CBFVR at peak Mean ± SD: 99.9 ± 22.1%
[4]; iv bolus 3 μg/kg, listed as binodenoson
  Duration (min) of hyperemia ≧85% of CBFVR Mean ± SD: 12.3 ± 9.59 min
[4]; [7]
  % of CBFVR at peak Range: 40.0-124.5%
  Duration (min) of hyperemia ≧85% of CBFVR Mean ± SD: 3.1 ± 1.97 min
  Duration (min) of hyperemia ≧85% of CBFVR Range: 1 to 8 min
  Peak CBFV Mean ± SD: 55.2 ± 21.0 cm/sec
  Peak CBFV Range: 17-122 cm/sec
  Time of peak CBFV Mean ± SD: 4.3 ± 2.8 min
  Time of peak CBFV Range: 1 to 12 min
  % of CBFVR at peak Mean ± SD: 83.5 ± 19.4%
[4]; iv infusion 0.3 μg/kg/min × 3 min, CVR = ([SBP − DBP]/3 + DBP)/CBFV
  CVR Maximum (mean ± SD): 1.7 ± 0.6 cm*mmHg/sec
[4]; [8]
  % of CBFVR at peak Range: 52.2-288.1%
  CVR Maximum (mean ± SD): 1.9 ± 0.7 cm*mmHg/sec
  Duration (min) of hyperemia ≧85% of CBFVR Mean ± SD: 5.3 ± 4.53 min
  Duration (min) of hyperemia ≧85% of CBFVR Range: 1 to 14 min
  Peak CBFV Mean ± SD: 49.6 ± 20.4 cm/sec
  Peak CBFV Range: 26-135 cm/sec
  Time of peak CBFV Mean ± SD: 5.4 ± 5.9 min
  Time of peak CBFV Range: 1 to 30 min
  % of CBFVR at peak Mean ± SD: 95.0 ± 40.4%
[4]; [9]
  % of CBFVR at peak Range: 66.5-144.5%
  CVR Maximum (mean ± SD): 1.7 ± 0.6 cm*mmHg/sec
  Duration (min) of hyperemia ≧85% of CBFVR Mean ± SD: 10.9 ± 8.54 min
  Duration (min) of hyperemia ≧85% of CBFVR Range: 1 to 24 min
  Peak CBFV Mean ± SD: 53.1 ± 14.8 cm/sec
  Peak CBFV Range: 29-81 cm/sec
  Time of peak CBFV Mean ± SD: 5.8 ± 3.8 min
  Time of peak CBFV Range: 1 to 13 min
  % of CBFVR at peak Mean ± SD: 100.9 ± 22.1%
[5]
  blood pressure and heart rate: dose-related hypotension and reflex tachycardia
A1 adenosine receptor
  EC50: 3.5 µM
[6]
  lung resistance: did not increase lung resistance
  respiratory rate: significant increase in respiratory rate
Adenosine Receptor A2B
  EC50: 44.7 µM
